From patent US9828350B2, “5,6-dihydro-2H-[1,4]oxazin-3-yl-amine derivatives useful as inhibitors of beta-secretase (BACE)” (Janssen Pharmaceutica NV, priority 2010, dated 2017)
Counter-ions that a name gives are not always drawn.

Tests used:
[1] = tested on: Abeta 1-42; experiment: Cellular αLisa assay in SKNBE2 cells, Abeta 1-42; type: cell-based, human; conditions: incubated for 18 hours; for IC50: Homo sapiens, SKNBE2, 18 h, read-out: Cellular αLisa assay in SKNBE2 cells Abeta 42 pIC50 (converted)
Experimental: (§1) Cellular αLisa Assay in SKNBE2 Cells
(§2) In two αLisa assays the levels of Abeta total and Abeta 1-42 produced and secreted into the medium of human neuroblastoma SKNBE2 cells are quantified. The assay is based on the human neuroblastoma SKNBE2 expressing the wild type Amyloid Precursor Protein (hAPP695). The compounds are diluted and added to these cells, incubated for 18 hours and then measurements of Abeta 1-42 and Abeta total are taken. Abeta total and Abeta 1-42 are measured by sandwich αLisa. αLisa is a sandwich assay using biotinylated antibody AbN/25 attached to streptavidin coated beads and antibody Ab4G8 or cAb42/26 conjugated acceptor beads for the detection of Abeta total and Abeta 1-42 respectively. In the presence of Abeta total or Abeta 1-42, the beads come into close proximity. The excitation of the donor beads provokes the release of singlet oxygen molecules that trigger a cascade of energy transfer in the acceptor beads, resulting in light emission. Light emission is measured after 1 hour incubation (excitation at […] and emission at 615 nm).

[2] = tested on: Abeta total; experiment: Cellular αLisa assay in SKNBE2 cells, Abeta total; type: cell-based, human; conditions: incubated for 18 hours; for IC50: Homo sapiens, SKNBE2, 18 h, read-out: Cellular αLisa assay in SKNBE2 cells Abetatotal pIC50 (converted)
Experimental: as §1, §2

[3] = target: recombinant BACE1 protein (Homo sapiens, UniProt P56817); experiment: Biochemical FRET based assay; conditions: recombinant BACE1 1 μg/ml, 120 minutes at room temperature, pH 5.0
Excerpt: Biochemical FRET Based Assay
This assay is a Fluorescence Resonance Energy Transfer Assay (FRET) based assay. The substrate for this assay is an APP derived 13 amino acids peptide that contains the ‘Swedish’ Lys-Met/Asn-Leu mutation of the amyloid precursor protein (APP) beta-secretase cleavage site. This substrate also contains two fluorophores: (7-methoxycoumarin-4-yl) acetic acid (Mca) is a fluorescent donor with excitation wavelength at 320 nm and emission at 405 nm and 2,4-Dinitrophenyl (Dnp) is a proprietary quencher acceptor. […] Upon cleavage by BACE1, the fluorophore Mca is separated from the quenching group Dnp, restoring the full fluorescence yield of the donor. The increase in fluorescence is linearly related to the rate of proteolysis.
Briefly in a 384-well format recombinant BACE1 protein in a final concentration of 1 μg/ml is incubated for 120 minutes at room temperature with […] substrate in incubation buffer (40 mM Citrate buffer pH 5.0, 0.04% PEG, 4% DMSO) in the absence or presence of compound. Next the amount of proteolysis is directly measured by fluorescence measurement at T=0 and T=120 (excitation at 320 nm and emission at 405 nm). Results are expressed in RFU (Relative Fluorescence Units), as difference between T120 and TO.

Sequence of recombinant BACE1 protein (P56817 46-501): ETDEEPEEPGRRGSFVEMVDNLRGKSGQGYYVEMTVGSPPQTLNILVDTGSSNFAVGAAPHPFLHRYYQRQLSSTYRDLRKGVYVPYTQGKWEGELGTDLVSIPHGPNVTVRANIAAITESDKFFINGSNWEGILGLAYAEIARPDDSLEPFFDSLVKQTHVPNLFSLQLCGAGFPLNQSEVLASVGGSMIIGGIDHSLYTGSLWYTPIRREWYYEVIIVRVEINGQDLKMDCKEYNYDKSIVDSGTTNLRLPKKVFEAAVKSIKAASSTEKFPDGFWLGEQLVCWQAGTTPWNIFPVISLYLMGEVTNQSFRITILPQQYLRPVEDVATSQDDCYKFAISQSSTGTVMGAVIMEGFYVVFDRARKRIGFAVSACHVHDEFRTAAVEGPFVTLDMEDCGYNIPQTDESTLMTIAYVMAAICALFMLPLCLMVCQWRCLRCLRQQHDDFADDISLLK

CC1(c2cccc(-c3cncnc3)c2)COCC(N)=N1 (racemic) [Compound 3, rac-5-methyl-5-(3-pyrimidin-5-ylphenyl)-5,6-dihydro-2H-1,4-oxazin-3-amine trifluoroacetate salt]
IC50 [1]: 631 nM | IC50 [2]: 646 nM

Cc1cnc(C(=O)Nc2cccc(C3(C)COCC(N)=N3)c2)cn1 (racemic) [Compound 7]
Cellular αLisa assay in SKNBE2 cells Abeta 42 pIC50 [1]: 6.49 | Cellular αLisa assay in SKNBE2 cells Abetatotal pIC50 [2]: 6.53 | Biochemical FRET based assay pIC50 [3]: 5.39

CC1(c2cccc(-c3cccc(C#N)c3)c2)COCC(N)=N1 (racemic) [Compound 10]
Cellular αLisa assay in SKNBE2 cells Abeta 42 pIC50 [1]: 6. | Cellular αLisa assay in SKNBE2 cells Abetatotal pIC50 [2]: 6.58 | Biochemical FRET based assay pIC50 [3]: 5.12

Cc1cncc(-c2cccc(C3(C)COCC(N)=N3)c2)c1 (racemic) [Compound 11]
Cellular αLisa assay in SKNBE2 cells Abeta 42 pIC50 [1]: 6.2 | Cellular αLisa assay in SKNBE2 cells Abetatotal pIC50 [2]: 6.33 | Biochemical FRET based assay pIC50 [3]: 4.84

CC1(c2cc(NC(=O)c3ccc(C(F)(F)F)cn3)c(F)cc2F)COCC(N)=N1 (racemic) [Compound 13]
Cellular αLisa assay in SKNBE2 cells Abeta 42 pIC50 [1]: 6.83 | Cellular αLisa assay in SKNBE2 cells Abetatotal pIC50 [2]: 6.84 | Biochemical FRET based assay pIC50 [3]: 5.37

COc1cncc(-c2cccc(C3(C)COC4(CC4)C(N)=N3)c2)c1 (racemic) [Compound 16, rac-6-[3-(5-methoxypyridin-3-yl)phenyl]-6-methyl-4-oxa-7-azaspiro[2.5]oct-7-en-8-amine]
IC50 [1]: 389 nM | IC50 [2]: 355 nM | IC50 ([3]; read-out: Biochemical FRET based assay pIC50 (converted)): 2190 nM

CC1(c2cc(NC(=O)c3ccc(Cl)cn3)ccc2F)COCC(N)=N1 (racemic) [Compound 17]
Cellular αLisa assay in SKNBE2 cells Abeta 42 pIC50 [1]: 8.32 | Cellular αLisa assay in SKNBE2 cells Abetatotal pIC50 [2]: 8.3

COc1cncc(-c2cccc([C@]3(C)CO[C@@H](C)C(N)=N3)c2)c1 (racemic) [Compound 18, trans-rac-5-[3-(5-methoxypyridin-3-yl)phenyl]-2,5-dimethyl-5,6-dihydro-2H-1,4-oxazin-3-amine]
Cellular αLisa assay in SKNBE2 cells Abeta 42 pIC50 [1]: 6.57 | Cellular αLisa assay in SKNBE2 cells Abetatotal pIC50 [2]: 6.61 | Biochemical FRET based assay pIC50 [3]: 5.54

COc1cncc(-c2cccc([C@@]3(C)CO[C@@H](C)C(N)=N3)c2)c1 (racemic) [Compound 19, cis-rac-5-[3-(5-methoxypyridin-3-yl)phenyl]-2,5-dimethyl-5,6-dihydro-2H-1,4-oxazin-3-amine]
Cellular αLisa assay in SKNBE2 cells Abeta 42 pIC50 [1]: 6.29 | Cellular αLisa assay in SKNBE2 cells Abetatotal pIC50 [2]: 6.352 | Biochemical FRET based assay pIC50 [3]: 5.38

COc1cnc(C(=O)Nc2ccc(F)c(C3(C)COCC(N)=N3)c2)cn1 (racemic) [Compound 57]
Cellular αLisa assay in SKNBE2 cells Abeta 42 pIC50 [1]: 7.79 | Cellular αLisa assay in SKNBE2 cells Abetatotal pIC50 [2]: 7.8

CC1(c2cc(NC(=O)c3ccc(Cl)cn3)ccc2F)COCC(N)=N1 (racemic) [Compound 65]
Cellular αLisa assay in SKNBE2 cells Abeta 42 pIC50 [1]: 8.32 | Cellular αLisa assay in SKNBE2 cells Abetatotal pIC50 [2]: 8.3

CC1(c2cc(NC(=O)c3ccc(Cl)cn3)ccc2F)N=C(N)COC1C(F)(F)F (racemic) [Compound 107, trans-rac-N-{3-[5-amino-3-methyl-2-(trifluoromethyl)-3,6-dihydro-2H-1,4-oxazin-3-yl]-4-fluorophenyl}-5-chloropyridine-2-carboxamide]
IC50 [1]: 15.5 nM | IC50 [2]: 12.6 nM

CC1(c2cc(NC(=O)c3ccc(Cl)cn3)ccc2F)COCC(N)=N1 (single isomer, unassigned) [Compound 61]
Cellular αLisa assay in SKNBE2 cells Abeta 42 pIC50 [1]: 6.94 | Cellular αLisa assay in SKNBE2 cells Abetatotal pIC50 [2]: 6.98

C[C@@]1(c2cc(NC(=O)c3ccc(Cl)cn3)ccc2F)N=C(N)CO[C@]1(F)C(F)(F)F (single isomer, unassigned) [Compound 109, (2R*,3S*)—N-{3-[5-amino-2-fluoro-3-methyl-2-(trifluoromethyl)-3,6-dihydro-2H-1,4-oxazin-3-yl]-4-fluorophenyl}-5-chloropyridine-2-carboxamide]
IC50 [1]: 708 nM | IC50 [2]: 832 nM

C[C@]1(c2cc(NC(=O)c3ccc(Cl)cn3)ccc2F)N=C(N)CO[C@@]1(F)C(F)(F)F (single isomer, unassigned) [Compound 110, (2S*,3R*)—N-{3-[5-amino-2-fluoro-3-methyl-2-(trifluoromethyl)-3,6-dihydro-2H-1,4-oxazin-3-yl]-4-fluorophenyl}-5-chloropyridine-2-carboxamide]
IC50 [1]: 22.9 nM | IC50 [2]: 22.4 nM

CC1(c2cccc(NC(=O)c3ccc(Cl)cn3)c2)N=C(N)COC1(F)C(F)(F)F (single isomer, unassigned) [Compound 114]
Cellular αLisa assay in SKNBE2 cells Abeta 42 pIC50 [1]: 5.82 | Cellular αLisa assay in SKNBE2 cells Abetatotal pIC50 [2]: 5.5

CC1(c2cccc(NC(=O)c3ccc(Cl)cn3)c2)N=C(N)COC1(F)C(F)(F)F (single isomer, unassigned) [Compound 115]
Cellular αLisa assay in SKNBE2 cells Abetatotal pIC50 [2]: 6.68

CC1(c2cc(NC(=O)c3ccc(C#N)cn3)ccc2F)N=C(N)COC1F (single isomer, unassigned) [Compound 125]
Cellular αLisa assay in SKNBE2 cells Abeta 42 pIC50 [1]: 6.44 | Cellular αLisa assay in SKNBE2 cells Abetatotal pIC50 [2]: 6.42

COc1cnc(C(=O)Nc2ccc(F)c(C3(C)N=C(N)COC3F)c2)cn1 (single isomer, unassigned) [Compound 129]
IC50 [1]: 5250 nM | IC50 [2]: 4570 nM

CC1(c2cc(NC(=O)c3ccc(Cl)cn3)ccc2F)N=C(N)COC1F (single isomer, unassigned) [Compound 135]
Cellular αLisa assay in SKNBE2 cells Abeta 42 pIC50 [1]: 5.04 | Cellular αLisa assay in SKNBE2 cells Abetatotal pIC50 [2]: 5.06

CC1(c2cc(NC(=O)c3ccc(Cl)cn3)ccc2F)N=C(N)COC1F (single isomer, unassigned) [Compound 136]
Cellular αLisa assay in SKNBE2 cells Abeta 42 pIC50 [1]: 5.26 | Cellular αLisa assay in SKNBE2 cells Abetatotal pIC50 [2]: 5.27

CC1(c2cc(NC(=O)c3ccc(Cl)cn3)ccc2F)N=C(N)COC1F (single isomer, unassigned) [Compound 137]
Cellular αLisa assay in SKNBE2 cells Abeta 42 pIC50 [1]: <4.82 | Cellular αLisa assay in SKNBE2 cells Abetatotal pIC50 [2]: <4.82

CC1(c2cc(NC(=O)c3ccc(Cl)cn3)ccc2F)N=C(N)COC1(F)C(F)(F)F.Cl.Cl (single isomer, unassigned) [Compound 159]
Cellular αLisa assay in SKNBE2 cells Abeta 42 pIC50 [1]: 6.15 | Cellular αLisa assay in SKNBE2 cells Abetatotal pIC50 [2]: 6.08

CC1(c2cc(NC(=O)c3ncc(Cl)cc3Cl)ccc2F)COCC(N)=N1 (stereo not drawn) [Compound 21]
Cellular αLisa assay in SKNBE2 cells Abeta 42 pIC50 [1]: 8.27 | Cellular αLisa assay in SKNBE2 cells Abetatotal pIC50 [2]: 8.3

C[C@@]1(c2cc(NC(=O)c3ccc(Cl)cn3)ccc2F)COCC(N)=N1 [Compound 44]
Cellular αLisa assay in SKNBE2 cells Abeta 42 pIC50 [1]: 8.39 | Cellular αLisa assay in SKNBE2 cells Abetatotal pIC50 [2]: 8.3945

C[C@@]1(c2cc(NC(=O)c3ccc(Cl)cn3)ccc2F)COCC(N)=N1 [Compound 62]
Cellular αLisa assay in SKNBE2 cells Abeta 42 pIC50 [1]: 8.39 | Cellular αLisa assay in SKNBE2 cells Abetatotal pIC50 [2]: 8.39

CC1(c2cc(NC(=O)c3ccc(C#N)cn3)ccc2F)N=C(N)COC1F (stereo not drawn) [Compound 76]
IC50 [1]: 11 nM | IC50 [2]: 11.2 nM

COc1cnc(C(=O)Nc2ccc(F)c(C3(C)N=C(N)COC3F)c2)cn1 (stereo not drawn) [Compound 79]
IC50 [1]: 25.7 nM | IC50 [2]: 25.7 nM

CC1(c2cc(NC(=O)c3ccc(Cl)cn3)ccc2F)N=C(N)COC1C(F)(F)F (stereo not drawn) [Compound 165]
Cellular αLisa assay in SKNBE2 cells Abeta 42 pIC50 [1]: 8.14 | Cellular αLisa assay in SKNBE2 cells Abetatotal pIC50 [2]: 8.13

CC1(c2cc(NC(=O)c3ccc(Cl)cn3)ccc2F)N=C(N)COC1C(F)(F)F (stereo not drawn) [Compound 170]
Cellular αLisa assay in SKNBE2 cells Abeta 42 pIC50 [1]: 8 | Cellular αLisa assay in SKNBE2 cells Abetatotal pIC50 [2]: 8

CC1(c2cc(NC(=O)c3ccc(Cl)cn3)ccc2F)N=C(N)COC1(F)C(F)(F)F (stereo not drawn) [Compound 186]
Cellular αLisa assay in SKNBE2 cells Abeta 42 pIC50 [1]: 6.75 | Cellular αLisa assay in SKNBE2 cells Abetatotal pIC50 [2]: 6.78

COc1cnc(C(=O)Nc2ccc(F)c(C3(C4CC4)N=C(N)COC3F)c2)cn1.Cl (stereo not drawn) [Compound 244]
Cellular αLisa assay in SKNBE2 cells Abetatotal pIC50 [2]: 7.11

COc1ccc(C(=O)Nc2cccc([C@@]3(C)N=C(N)CO[C@]3(F)C(F)(F)F)c2)nc1 [Compound 247]
IC50 [1]: 16.2 nM | IC50 [2]: 14.5 nM

COc1ccc(C(=O)Nc2cccc([C@@]3(C)N=C(N)CO[C@@]3(F)C(F)(F)F)c2)nc1 [Compound 248]
IC50 [1]: 229 nM | IC50 [2]: 209 nM

NC1=N[C@@](c2cc(-c3cncc(Cl)c3)ccc2F)(C2CC2)[C@H](F)OC1 [Compound 273]
IC50 [1]: 8130 nM | IC50 [2]: 6460 nM
